Measured values: ChEMBL document CHEMBL1201862, “PubChem BioAssay data set” (2004)
Activity calls are given as the source filed them.

What was measured:
[1] = nonselective StAR promoter luciferase inhibitors – cell-based, luminescence, luciferase reporter, counter-screen for LRH-1 inverse agonist project, dose response (AID 651969); type: functional
Steroidogenic factor 1 = Steroidogenic factor 1 (Homo sapiens, UniProt Q13285); experiment: Counterscreen for inverse agonists of the liver receptor homolog-1 (LRH-1; NR5A2): Luminescence-based cell-based high throughput dose response assay to identify inverse agonists of the Steroidogenic Factor 1 Nuclear Receptor (SF1; NR5A1).; type: functional
Chain of Steroidogenic factor 1 (Q13285 whole entry): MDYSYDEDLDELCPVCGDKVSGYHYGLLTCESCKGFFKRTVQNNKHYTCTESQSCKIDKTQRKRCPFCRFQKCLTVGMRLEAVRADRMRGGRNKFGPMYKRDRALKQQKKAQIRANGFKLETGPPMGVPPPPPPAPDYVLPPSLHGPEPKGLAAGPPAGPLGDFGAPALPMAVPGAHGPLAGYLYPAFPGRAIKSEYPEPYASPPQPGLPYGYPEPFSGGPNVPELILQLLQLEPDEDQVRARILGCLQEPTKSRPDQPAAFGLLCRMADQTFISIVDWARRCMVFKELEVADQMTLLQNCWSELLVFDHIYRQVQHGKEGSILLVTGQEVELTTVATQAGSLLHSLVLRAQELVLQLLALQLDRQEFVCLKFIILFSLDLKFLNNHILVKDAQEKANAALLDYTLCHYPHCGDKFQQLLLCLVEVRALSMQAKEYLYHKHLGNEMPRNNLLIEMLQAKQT

[2] = target: Nuclear receptor subfamily 5 group A member 2 (Homo sapiens, UniProt O00482); type: functional, cell-based;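 also: HEK293T cells transfected with LRH-1 and a StAR promoter luciferase reporter; potency for inhibitors that lower LRH-1 driven reporter light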
Chain of Nuclear receptor subfamily 5 group A member 2 (O00482 whole entry): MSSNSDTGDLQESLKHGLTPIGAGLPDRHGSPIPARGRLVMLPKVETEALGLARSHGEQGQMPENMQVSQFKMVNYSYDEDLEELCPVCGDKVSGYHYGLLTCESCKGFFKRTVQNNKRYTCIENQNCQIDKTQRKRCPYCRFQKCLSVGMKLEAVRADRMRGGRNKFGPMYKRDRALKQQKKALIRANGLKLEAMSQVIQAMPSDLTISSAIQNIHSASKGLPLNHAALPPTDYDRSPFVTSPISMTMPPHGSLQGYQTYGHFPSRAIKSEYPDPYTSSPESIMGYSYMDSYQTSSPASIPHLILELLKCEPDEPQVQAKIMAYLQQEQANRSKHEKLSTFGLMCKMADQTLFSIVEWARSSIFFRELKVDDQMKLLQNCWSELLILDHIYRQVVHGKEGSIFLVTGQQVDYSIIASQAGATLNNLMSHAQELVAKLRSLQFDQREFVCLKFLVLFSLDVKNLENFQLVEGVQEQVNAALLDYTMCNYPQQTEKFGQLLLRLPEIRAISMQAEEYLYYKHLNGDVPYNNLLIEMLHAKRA

[3] = Luminescence Cell-Based Dose Confirmation HTS to Identify Activators of 5'UTR Stem-Loop Driven Alpha-Synuclein mRNA Translation in H4 Neuroglioblastoma Cells. [Related pubchem assays: 1829 (Project Summary), 1814 (Primary HTS)]; type: functional
[4] = target: T1, Rac GTPase-activating protein 1 (Homo sapiens, UniProt Q9H0H5); experiment: blockers of MgcRacGAP-driven Rac1 GTP hydrolysis – biochemical, ADP Hunter fluorescence, primary and confirmatory, confirmation (AID 624330); type: functional
T1 sequence (Q9H0H5 whole entry): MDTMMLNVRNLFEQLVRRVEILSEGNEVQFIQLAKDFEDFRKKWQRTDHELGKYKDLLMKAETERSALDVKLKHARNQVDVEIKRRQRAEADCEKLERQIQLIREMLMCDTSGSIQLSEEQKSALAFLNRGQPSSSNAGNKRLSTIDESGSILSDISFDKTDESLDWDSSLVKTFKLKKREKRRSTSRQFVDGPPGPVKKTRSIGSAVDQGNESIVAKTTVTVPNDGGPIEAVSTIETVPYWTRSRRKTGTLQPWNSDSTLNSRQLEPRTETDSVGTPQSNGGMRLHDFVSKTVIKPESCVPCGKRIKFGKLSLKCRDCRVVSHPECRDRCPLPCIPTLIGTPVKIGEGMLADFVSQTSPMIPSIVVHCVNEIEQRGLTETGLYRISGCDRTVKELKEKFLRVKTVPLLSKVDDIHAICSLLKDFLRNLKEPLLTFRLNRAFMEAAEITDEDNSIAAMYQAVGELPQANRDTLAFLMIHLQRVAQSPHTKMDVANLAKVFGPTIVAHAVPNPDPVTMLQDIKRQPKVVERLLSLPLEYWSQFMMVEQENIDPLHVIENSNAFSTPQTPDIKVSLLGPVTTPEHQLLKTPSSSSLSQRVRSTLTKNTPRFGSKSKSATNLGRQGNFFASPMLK

[5] = viability loss in HeLa cells – cytotoxicity control for MgcRacGAP inhibitor project, dose response (AID 624300); type: functional
H4 = experiment: Luminescence Cell-Based Dose Response HTS to Identify Activators of 5'UTR Stem-Loop Driven Prion Protein mRNA Translation in H4 Neuroglioblastoma Cells. [Related pubchem assays: 1829 (Project Summary), 1814 (Primary HTS)]; type: functional; details: Homo sapiens
[6] = Luminescence Cell-Based Dose Response HTS to Identify Activators of Luciferase Translation or Activity in H4 […] Cells. [Related pubchem assays: 1829 (Project Summary), 1814 (Primary HTS)]; type: functional
Fatty acid synthase [7] = target: T2, Fatty acid synthase (Homo sapiens, UniProt P49327); experiment: inhibition of human FAS-TE enzyme activity – biochemical, kinetic fluorescence intensity, dose response (AID 624326); type: functional;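 also: rate of fluorescence rise from hydrolysis of a fluorogenic O-methyl fluorescein ester substrate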
T2 sequence (P49327 whole entry): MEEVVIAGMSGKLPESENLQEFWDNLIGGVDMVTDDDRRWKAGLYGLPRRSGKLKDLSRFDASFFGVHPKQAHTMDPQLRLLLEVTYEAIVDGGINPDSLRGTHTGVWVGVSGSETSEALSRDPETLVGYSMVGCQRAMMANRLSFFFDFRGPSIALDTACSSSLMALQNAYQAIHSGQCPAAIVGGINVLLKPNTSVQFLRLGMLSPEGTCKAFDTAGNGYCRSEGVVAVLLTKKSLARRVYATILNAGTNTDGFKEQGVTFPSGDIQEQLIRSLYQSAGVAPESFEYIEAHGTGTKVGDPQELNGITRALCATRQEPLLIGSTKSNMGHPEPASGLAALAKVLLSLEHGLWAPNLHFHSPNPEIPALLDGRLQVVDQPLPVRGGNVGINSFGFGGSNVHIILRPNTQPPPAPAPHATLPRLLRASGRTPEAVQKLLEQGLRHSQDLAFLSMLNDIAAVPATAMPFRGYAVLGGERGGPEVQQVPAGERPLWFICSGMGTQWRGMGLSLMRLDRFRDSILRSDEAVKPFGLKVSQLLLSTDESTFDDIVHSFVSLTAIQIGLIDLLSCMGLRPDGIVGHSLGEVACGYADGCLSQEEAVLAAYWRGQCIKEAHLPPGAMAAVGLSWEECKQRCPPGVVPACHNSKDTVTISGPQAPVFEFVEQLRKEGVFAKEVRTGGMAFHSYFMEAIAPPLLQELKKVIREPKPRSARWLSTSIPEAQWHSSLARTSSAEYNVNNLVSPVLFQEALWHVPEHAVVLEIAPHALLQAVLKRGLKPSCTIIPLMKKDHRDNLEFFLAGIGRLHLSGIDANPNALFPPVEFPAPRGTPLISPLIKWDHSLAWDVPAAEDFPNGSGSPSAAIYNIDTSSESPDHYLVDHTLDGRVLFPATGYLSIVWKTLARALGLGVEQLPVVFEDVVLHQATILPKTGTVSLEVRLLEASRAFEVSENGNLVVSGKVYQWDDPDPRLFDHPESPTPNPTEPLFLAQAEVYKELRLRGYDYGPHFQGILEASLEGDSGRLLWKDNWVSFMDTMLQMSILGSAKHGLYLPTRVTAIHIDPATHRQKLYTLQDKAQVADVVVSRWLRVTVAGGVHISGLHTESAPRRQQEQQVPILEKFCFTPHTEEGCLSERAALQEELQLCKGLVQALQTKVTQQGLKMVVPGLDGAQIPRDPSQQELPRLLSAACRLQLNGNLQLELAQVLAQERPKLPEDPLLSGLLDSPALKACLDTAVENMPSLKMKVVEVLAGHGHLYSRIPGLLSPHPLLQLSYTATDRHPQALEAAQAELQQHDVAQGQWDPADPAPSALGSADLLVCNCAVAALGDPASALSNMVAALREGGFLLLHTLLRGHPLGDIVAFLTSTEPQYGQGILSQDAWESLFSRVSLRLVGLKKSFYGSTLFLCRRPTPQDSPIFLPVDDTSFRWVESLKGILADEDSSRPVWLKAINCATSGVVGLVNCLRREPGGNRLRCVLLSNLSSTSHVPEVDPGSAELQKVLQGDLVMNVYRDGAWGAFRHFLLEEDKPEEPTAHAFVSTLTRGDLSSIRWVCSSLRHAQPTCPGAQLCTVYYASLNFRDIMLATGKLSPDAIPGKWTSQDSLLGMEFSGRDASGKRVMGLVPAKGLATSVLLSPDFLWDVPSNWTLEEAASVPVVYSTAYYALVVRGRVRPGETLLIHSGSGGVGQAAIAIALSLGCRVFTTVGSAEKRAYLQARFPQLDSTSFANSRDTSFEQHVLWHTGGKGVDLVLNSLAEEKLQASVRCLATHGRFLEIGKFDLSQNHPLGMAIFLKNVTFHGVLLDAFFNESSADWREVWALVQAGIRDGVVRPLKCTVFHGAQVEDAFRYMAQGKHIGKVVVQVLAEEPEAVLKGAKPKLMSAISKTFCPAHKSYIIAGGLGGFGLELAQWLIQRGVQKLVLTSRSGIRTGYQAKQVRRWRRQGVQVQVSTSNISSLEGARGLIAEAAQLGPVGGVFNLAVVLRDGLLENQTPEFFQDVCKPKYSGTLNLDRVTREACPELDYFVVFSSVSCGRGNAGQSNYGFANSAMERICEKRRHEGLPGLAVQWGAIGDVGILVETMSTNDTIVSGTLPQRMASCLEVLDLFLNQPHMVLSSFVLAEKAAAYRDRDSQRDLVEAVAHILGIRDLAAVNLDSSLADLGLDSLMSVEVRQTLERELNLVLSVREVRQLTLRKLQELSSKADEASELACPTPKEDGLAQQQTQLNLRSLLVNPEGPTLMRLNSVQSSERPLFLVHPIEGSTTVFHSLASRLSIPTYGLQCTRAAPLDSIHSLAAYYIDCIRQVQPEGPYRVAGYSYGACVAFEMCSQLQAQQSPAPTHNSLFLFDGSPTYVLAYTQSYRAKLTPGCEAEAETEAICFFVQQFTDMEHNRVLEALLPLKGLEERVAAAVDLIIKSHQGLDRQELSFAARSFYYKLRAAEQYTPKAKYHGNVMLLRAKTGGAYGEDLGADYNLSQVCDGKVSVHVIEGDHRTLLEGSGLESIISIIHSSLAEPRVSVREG

Fatty acid synthase [8] = target: T2, Fatty acid synthase; experiment: inhibition of human FAS-TE enzyme activity – biochemical, endpoint fluorescence intensity, uHTS hits, dose response (AID 624327); type: functional;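 also: fluorescence from hydrolysis of an O-methyl fluorescein acyl ester substrate by the enzyme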
[9] = target: T3, DNA repair and recombination protein RAD54-like (Homo sapiens, UniProt Q92698); experiment: RAD54 Holliday junction migration blockers – biochemical, fluorescence, cherry-picked samples, dose series, confirmation (AID 651657); type: functional
T3 sequence (Q92698 whole entry): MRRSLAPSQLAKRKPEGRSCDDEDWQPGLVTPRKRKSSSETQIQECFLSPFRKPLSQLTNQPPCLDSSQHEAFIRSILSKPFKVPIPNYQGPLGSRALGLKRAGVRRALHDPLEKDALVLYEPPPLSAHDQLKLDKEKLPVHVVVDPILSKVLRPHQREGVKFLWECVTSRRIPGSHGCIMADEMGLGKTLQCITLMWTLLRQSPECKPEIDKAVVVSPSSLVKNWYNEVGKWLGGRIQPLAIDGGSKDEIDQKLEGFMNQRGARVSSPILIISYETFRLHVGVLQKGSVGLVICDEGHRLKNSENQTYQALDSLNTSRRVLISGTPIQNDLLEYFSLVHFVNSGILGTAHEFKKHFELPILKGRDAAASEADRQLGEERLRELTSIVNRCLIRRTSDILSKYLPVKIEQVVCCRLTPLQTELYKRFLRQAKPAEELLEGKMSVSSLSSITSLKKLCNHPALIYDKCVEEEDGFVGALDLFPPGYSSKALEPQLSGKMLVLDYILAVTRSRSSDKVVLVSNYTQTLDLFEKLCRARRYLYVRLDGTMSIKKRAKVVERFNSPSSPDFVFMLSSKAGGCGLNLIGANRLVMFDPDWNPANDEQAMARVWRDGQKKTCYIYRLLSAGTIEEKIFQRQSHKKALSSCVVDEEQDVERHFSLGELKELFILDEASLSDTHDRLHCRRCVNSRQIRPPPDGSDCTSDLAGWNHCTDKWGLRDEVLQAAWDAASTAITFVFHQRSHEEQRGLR

[10] = target: T4, DNA repair protein RAD52 homolog (Homo sapiens, UniProt P43351); type: functional, biochemical
T4 sequence (P43351 whole entry): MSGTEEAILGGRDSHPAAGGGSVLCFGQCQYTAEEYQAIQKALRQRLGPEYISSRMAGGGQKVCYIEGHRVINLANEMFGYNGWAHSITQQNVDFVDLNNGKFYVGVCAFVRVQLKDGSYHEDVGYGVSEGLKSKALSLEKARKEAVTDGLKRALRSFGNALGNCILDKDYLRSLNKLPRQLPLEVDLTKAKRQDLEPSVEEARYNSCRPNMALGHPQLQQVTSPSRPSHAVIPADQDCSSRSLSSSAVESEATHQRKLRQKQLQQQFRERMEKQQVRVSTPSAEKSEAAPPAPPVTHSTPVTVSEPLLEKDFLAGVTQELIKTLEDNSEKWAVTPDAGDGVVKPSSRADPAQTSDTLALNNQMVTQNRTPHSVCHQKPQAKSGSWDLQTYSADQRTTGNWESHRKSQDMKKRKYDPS

[11] = T. cruzi growth inhibition in host cells, dose response, cell-based, plate reader, dry powder, set 2 (AID 652275); type: functional
[12] = target: T5, Small ubiquitin-related modifier 1 (Homo sapiens, UniProt P63165); experiment: SUMO1 protein interaction blockers, potency – biochemical, fluorescence polarization, uHTS hits, dose response (AID 624382); type: functional; details: read-out: IC50_Mean
T5 sequence (P63165 whole entry): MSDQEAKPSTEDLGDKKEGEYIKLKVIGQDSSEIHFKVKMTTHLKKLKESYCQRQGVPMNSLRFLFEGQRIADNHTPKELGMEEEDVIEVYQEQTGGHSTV

[13] = target: T5, Small ubiquitin-related modifier 1; experiment: SUMO1 protein-protein binding blockers, potency – biochemical, FRET, dose response (AID 624383); type: functional; details: read-out: IC50_Mean
Cytochrome P450 3A4 = Cytochrome P450 3A4 (Homo sapiens, UniProt P08684);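 also: CYP3A4 tested as one member of a cytochrome P450 panel screen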
Chain of Cytochrome P450 3A4 (P08684 whole entry): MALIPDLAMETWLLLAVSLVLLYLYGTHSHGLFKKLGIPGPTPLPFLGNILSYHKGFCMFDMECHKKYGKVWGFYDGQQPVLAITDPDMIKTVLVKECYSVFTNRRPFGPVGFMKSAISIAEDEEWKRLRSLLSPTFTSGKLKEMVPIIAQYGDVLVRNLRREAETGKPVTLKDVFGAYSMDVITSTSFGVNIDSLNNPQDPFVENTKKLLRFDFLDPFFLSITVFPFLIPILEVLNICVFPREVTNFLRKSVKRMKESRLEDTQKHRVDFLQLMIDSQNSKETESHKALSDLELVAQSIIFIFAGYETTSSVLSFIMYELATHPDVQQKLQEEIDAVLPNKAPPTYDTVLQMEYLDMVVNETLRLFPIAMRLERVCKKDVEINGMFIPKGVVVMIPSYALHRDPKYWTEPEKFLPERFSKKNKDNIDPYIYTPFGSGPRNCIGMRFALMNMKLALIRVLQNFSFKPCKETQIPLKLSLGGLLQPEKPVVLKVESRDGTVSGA

Question: What does the source list for Cc1ccn2c(=O)nc(SCC(=O)Nc3ccc4c(c3)OCCO4)nc2c1?
Answer: IC50 [1]: 35.9 µM (inactive); IC50 (Steroidogenic factor 1): 3.98 µM (active); IC50 [2]: 35.9 µM (inactive)

Question: For CCn1c(SC(C)C)nnc1-c1cc(-c2ccccc2)sc1N, which EC50 [3] is on record?
Answer: > 120 µM (not active)

Question: And the IC50 [4]?
Answer: 31.1 µM (active)

Question: What about the CC50 [5] of the same compound?
Answer: 100 µM (active)

Question: What about the EC50 (H4) of the same compound?
Answer: > 120 µM (not active)

Question: And the EC50 [6]?
Answer: > 120 µM (not active)

Question: What does the source list for COc1ccc(N2CCN(CC(O)COC(c3ccc(F)cc3)c3ccc(F)cc3)CC2)cc1 (stereo not given)?
Answer: IC50 [4]: 92.8 µM (active); CC50 [5]: 100 µM (active)

Question: Which IC50 (Fatty acid synthase [7]) does the source give for CN(Cc1ccccc1)C(=O)COC(=O)c1cc([N+](=O)[O-])ccc1N1CCOCC1 here?
Answer: 0.617 µM (active)

Question: What about the IC50 (Fatty acid synthase [8]) of the same compound?
Answer: 0.539 µM (active)

Question: What does the source list for Cc1cc(N2CCN(C)CC2)nc2ccc(NC(=S)NCCCN3CCc4ccccc4C3)cc12?
Answer: AC50 [9]: 28.1 µM (active); AC50 [10]: 3.85 µM (active)

Question: Which IC50 (Fatty acid synthase [7]) does the source give for COc1cccc(-c2cnc3c(NC=O)cc(-c4ccc(S(C)(=O)=O)cc4)cn23)c1 here?
Answer: 9.95 µM (active)

Question: And the IC50 (Fatty acid synthase [8])?
Answer: 11.2 µM (active)

Question: For Cc1cc(Br)ccc1NC(=O)CSc1nnc(CN2CCOCC2)n1C, which IC50 [1] is on record?
Answer: 35.9 µM (inactive)

Question: What about the IC50 (Steroidogenic factor 1) of the same compound?
Answer: 24.7 µM (inactive)

Question: And the IC50 [2]?
Answer: 40.2 µM (inactive)

Question: What does the source list for COCCCNC(=O)C[C@H]1C[C@H](C(=O)N2CCOCC2)[C@@]2(CCC3CCCC3)c3[nH]c4cc(-c5ccco5)ccc4c3CCN2C1=O?
Answer: IC50 (Fatty acid synthase [7]): 9.08 µM (active); IC50 (Fatty acid synthase [8]): 6.51 µM (active)

Question: For O=C(C1CCC1)N1CCCCN2[C@@H](CO)[C@H](c3ccc(-c4cccc(F)c4)cc3)[C@@H]2C1, which AC50 [11] is on record?
Answer: 0.227 µM (active)

Question: With CN(C)CCNC(=O)c1cccc(-c2cnc3c(NC=O)cc(-c4cccs4)cn23)c1 as the compound, how does the AC50 [9] read?
Answer: 15.6 µM (active)

Question: And the IC50 [12]?
Answer: > 66.6 µM (inactive)

Question: What about the IC50 [13] of the same compound?
Answer: 1.82 µM (active)

Question: And the AC50 [10]?
Answer: 8.36 µM (active)

Question: For Cc1sc(NC(=O)C(C)C)c(C(=O)Nc2ccccc2)c1C, which IC50 [1] is on record?
Answer: 35.9 µM (inactive)

Question: What about the IC50 (Steroidogenic factor 1) of the same compound?
Answer: 3.85 µM (active)

Question: What about the IC50 [2] of the same compound?
Answer: 11.6 µM (inactive)

Question: What about the AC50 (Cytochrome P450 3A4) of the same compound?
Answer: inconclusive
